Reference: patent publication US9149038B2, “4-amino-6-(heterocyclic)picolinates and 6-amino-2-(heterocyclic)pyrimidine-4-carboxylates and their use as herbicides” (Dow AgroSciences LLC, priority 2013, dated 2015)
Where two headings read alike, the source gives them in different places.

Test system: Wheat and Barley and weed species
Test: Post-Emergent Test III: postemergent herbicidal activity in wheat and barley, visual rating after 21 d and probit GR20/GR50/GR80/GR90 (Tables 9-13)
Format: in vivo
Details: for pest or weed control at 17.5 g/ha / pest or weed control at 35 g/ha / pest or weed control at 70 g/ha: post-emergence, 504 h
How it was run: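 Greenhouse plants (~18/17 °C, 14 h photoperiod) at second–third true leaf stage sprayed at 187 L/ha with a high rate and ½× to 1/16× serial dilutions. Visual injury 0–100% versus solvent-blank controls scored at 21 d; GR20, GR50, GR80 and GR90 derived by probit analysis across rates.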

Nc1c(F)c(-c2cc3c(cc2F)OC(F)(F)O3)nc(C(=O)O)c1Cl [Compound 13]
GR50 ALOMY (ALOMY black-grass (Alopecurus myosuroides), growth reduction of 50%, probit analysis): 20 g ai/ha | GR80 ALOMY (ALOMY black-grass (Alopecurus myosuroides), growth reduction of 80%, probit analysis): 40 g ai/ha | GR90 ALOMY (ALOMY black-grass (Alopecurus myosuroides), growth reduction of 90%, probit analysis): 57 g ai/ha | GR50 APESV (APESV bentgrass (Apera spica-venti), growth reduction of 50%, probit analysis): >70 g ai/ha | GR80 APESV (APESV bentgrass (Apera spica-venti), growth reduction of 80%, probit analysis): >70 g ai/ha | GR90 APESV (APESV bentgrass (Apera spica-venti), growth reduction of 90%, probit analysis): >70 g ai/ha | GR20 HORVS (HORVS barley, spring (crop), growth reduction of 20%, probit analysis): 2 g ai/ha | pest or weed control at 17.5 g/ha (Hordeum vulgare, HORVS barley, spring (crop), 17.5 g ai/ha, read-out: Visual Growth Reduction (%) 21 Days After Application HORVS): 60 to 74% | pest or weed control at 35 g/ha (Hordeum vulgare, HORVS barley, spring (crop), 35 g ai/ha, read-out: Visual Growth Reduction (%) 21 Days After Application HORVS): 75 to 84% | pest or weed control at 70 g/ha (Hordeum vulgare, HORVS barley, spring (crop), 70 g ai/ha, read-out: Visual Growth Reduction (%) 21 Days After Application HORVS): 85 to 94% | GR50 LOLSS (LOLSS ryegrass, growth reduction of 50%, probit analysis): >70 g ai/ha | GR80 LOLSS (LOLSS ryegrass, growth reduction of 80%, probit analysis): >70 g ai/ha | GR90 LOLSS (LOLSS ryegrass, growth reduction of 90%, probit analysis): >70 g ai/ha | Visual Growth Reduction (%) 21 Days After Application MATCH (MATCH wild chamomile (Matricaria recutita L.), 17.5 g ai/ha): G (0-29) | Visual Growth Reduction (%) 21 Days After Application MATCH (MATCH wild chamomile (Matricaria recutita L.), 35 g ai/ha): F (30-44) | Visual Growth Reduction (%) 21 Days After Application MATCH (MATCH wild chamomile (Matricaria recutita L.), 70 g ai/ha): D (60-74) | GR50 MATCH (MATCH wild chamomile (Matricaria recutita L.), growth reduction of 50%, probit analysis): 58 g ai/ha | GR80 MATCH (MATCH wild chamomile (Matricaria recutita L.), growth reduction of 80%, probit analysis): >70 g ai/ha | GR90 MATCH (MATCH wild chamomile (Matricaria recutita L.), growth reduction of 90%, probit analysis): >70 g ai/ha | GR50 SETVI (SETVI green foxtail (Setaria viridis), growth reduction of 50%, probit analysis): 4 g ai/ha | GR80 SETVI (SETVI green foxtail (Setaria viridis), growth reduction of 80%, probit analysis): 20 g ai/ha | GR90 SETVI (SETVI green foxtail (Setaria viridis), growth reduction of 90%, probit analysis): 45 g ai/ha | GR20 TRZAS (TRZAS wheat, spring (crop), growth reduction of 20%, probit analysis): 2 g ai/ha | pest or weed control at 17.5 g/ha (Triticum aestivum, TRZAS wheat, spring (crop), 17.5 g ai/ha, read-out: Visual Growth Reduction (%) 21 Days After Application TRZAS): 60 to 74% | pest or weed control at 35 g/ha (Triticum aestivum, TRZAS wheat, spring (crop), 35 g ai/ha, read-out: Visual Growth Reduction (%) 21 Days After Application TRZAS): 75 to 84% | pest or weed control at 70 g/ha (Triticum aestivum, TRZAS wheat, spring (crop), 70 g ai/ha, read-out: Visual Growth Reduction (%) 21 Days After Application TRZAS): 75 to 84% | Visual Growth Reduction (%) 21 Days After Application VERPE (VERPE bird's-eye speedwell (veronica persica), 17.5 g ai/ha): C (75-84) | Visual Growth Reduction (%) 21 Days After Application VERPE (VERPE bird's-eye speedwell (veronica persica), 35 g ai/ha): B (85-94) | Visual Growth Reduction (%) 21 Days After Application VERPE (VERPE bird's-eye speedwell (veronica persica), 70 g ai/ha): A (95-100) | GR50 VERPE (VERPE bird's-eye speedwell (veronica persica), growth reduction of 50%, probit analysis): 3 g ai/ha | GR80 VERPE (VERPE bird's-eye speedwell (veronica persica), growth reduction of 80%, probit analysis): 16 g ai/ha | GR90 VERPE (VERPE bird's-eye speedwell (veronica persica), growth reduction of 90%, probit analysis): 37 g ai/ha | pest or weed control at 17.5 g/ha (ALOMY black-grass (Alopecurus myosuroides), 17.5 g ai/ha, read-out: Visual Growth Reduction (%) 21 Days After Application ALOMY): 45 to 59% | pest or weed control at 35 g/ha (ALOMY black-grass (Alopecurus myosuroides), 35 g ai/ha, read-out: Visual Growth Reduction (%) 21 Days After Application ALOMY): 60 to 74% | pest or weed control at 70 g/ha (ALOMY black-grass (Alopecurus myosuroides), 70 g ai/ha, read-out: Visual Growth Reduction (%) 21 Days After Application ALOMY): 95 to 100% | pest or weed control at 17.5 g/ha (APESV bentgrass (Apera spica-venti), 17.5 g ai/ha, read-out: Visual Growth Reduction (%) 21 Days After Application APESV): 0 to 29% | pest or weed control at 35 g/ha (APESV bentgrass (Apera spica-venti), 35 g ai/ha, read-out: Visual Growth Reduction (%) 21 Days After Application APESV): 45 to 59% | pest or weed control at 70 g/ha (APESV bentgrass (Apera spica-venti), 70 g ai/ha, read-out: Visual Growth Reduction (%) 21 Days After Application APESV): 60 to 74% | pest or weed control at 17.5 g/ha (LOLSS ryegrass, 17.5 g ai/ha, read-out: Visual Growth Reduction (%) 21 Days After Application LOLSS): 0 to 29% | pest or weed control at 35 g/ha (LOLSS ryegrass, 35 g ai/ha, read-out: Visual Growth Reduction (%) 21 Days After Application LOLSS): 0 to 29% | pest or weed control at 70 g/ha (LOLSS ryegrass, 70 g ai/ha, read-out: Visual Growth Reduction (%) 21 Days After Application LOLSS): 0 to 29% | pest or weed control at 17.5 g/ha (SETVI green foxtail (Setaria viridis), 17.5 g ai/ha, read-out: Visual Growth Reduction (%) 21 Days After Application SETVI): 60 to 74% | pest or weed control at 35 g/ha (SETVI green foxtail (Setaria viridis), 35 g ai/ha, read-out: Visual Growth Reduction (%) 21 Days After Application SETVI): 75 to 84% | pest or weed control at 70 g/ha (SETVI green foxtail (Setaria viridis), 70 g ai/ha, read-out: Visual Growth Reduction (%) 21 Days After Application SETVI): 95 to 100%
